Results: US20230192705A1, “SHP2 INHIBITORS, COMPOSITIONS AND USES THEREOF” (Betta Pharmaceuticals Co., Ltd, priority 2020, published 2023)

target: T1, SHP2 (Homo sapiens, UniProt Q06124); assay: SHP2 allosteric inhibitor enzyme activity assay (DiFMUP fluorescence); type: biochemical; details: class symbols
T1 sequence (Q06124 1-593): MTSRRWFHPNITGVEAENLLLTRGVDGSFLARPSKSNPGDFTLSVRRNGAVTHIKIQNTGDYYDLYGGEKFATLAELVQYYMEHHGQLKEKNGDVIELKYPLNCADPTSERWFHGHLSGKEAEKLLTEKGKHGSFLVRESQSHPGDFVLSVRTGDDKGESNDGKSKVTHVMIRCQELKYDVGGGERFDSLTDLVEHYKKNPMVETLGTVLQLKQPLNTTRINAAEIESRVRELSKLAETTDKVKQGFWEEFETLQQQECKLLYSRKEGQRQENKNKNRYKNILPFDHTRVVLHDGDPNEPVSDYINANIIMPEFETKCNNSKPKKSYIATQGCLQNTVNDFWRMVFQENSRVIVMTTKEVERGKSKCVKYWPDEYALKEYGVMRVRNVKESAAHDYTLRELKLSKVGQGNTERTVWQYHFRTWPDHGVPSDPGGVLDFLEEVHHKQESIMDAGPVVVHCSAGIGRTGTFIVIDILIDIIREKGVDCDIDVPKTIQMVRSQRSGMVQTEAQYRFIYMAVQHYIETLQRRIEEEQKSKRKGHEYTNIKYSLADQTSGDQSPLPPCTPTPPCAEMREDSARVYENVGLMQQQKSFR
Source text: SHP2 is activated by the binding of a bis-tyrosyl-phosphorylated peptide to its Src homologous 2 (SH2) domain. This subsequent activation step leads to the release of the automatic inhibition interface of SHP2, which in turn activates the SHP2 protein tyrosine phosphatase (PTP) and can be used for substrate recognition and reaction catalysis. The catalytic activity of SHP2 was monitored using the alternative DiFMUP in a rapid fluorescence assay format.
Assay procedures are as follows:
(1) Compound Formulation:
The compound of the present invention (10 mM stock solution) was diluted to a suitable multiple with 100% DMSO and assay buffer, and the final test concentration of the compound of the present invention was 1 μM, 0.333 μM, 0.111 μM, 0.0370 μM, 0.0124 μM, 0.00412 μM, 0.00137 μM, 0.00046 μM, 0.00015 μM, 0.00 μM;
(2) Preparation of Enzyme Reaction Working Fluid:
SHP2 enzyme activity was performed using a final reaction volume of 50 μL and the following assay buffer conditions in 96-well black polystyrene plates (flat bottom, low flange, non-bonding surface) (Perki Elmer, Cat #6005270) at room temperature: 60 mM HEPES, 75 mM NaCl, 75 mM KCl, 0.05% BRIJ-35, 1 mM EDTA, 5 mM DTT.
(3) Enzyme Catalytic Reaction and Data Monitoring:
Compounds of the present invention were added to the corresponding 96-well plates, and no compound and enzyme were provided as blank test wells. SHP2 Activating Peptide (IRS1_pY1172 (dPEG8)pY1222) was placed on ice for melting, and 0.5 μM was added per well, then 0.2 ng SHP2 protein samples were added to corresponding well plates, and incubated at room temperature for 1 hour. Substrate DiFMUP (Invitrogen, Cat #D6567) was added to the reaction at room temperature for 1 hour. Fluorescence signals were monitored using an enzyme reader (Envision, Perki Elmer) using excitation wavelengths and emission wavelengths of 340 nm and 450 nm, respectively.
Inhibition %=[1−(Conversion_sample−Conversion_min)/(Conversion_max−Conversion_min)]*100% Calculation formula: […]
where: Conversion_sample is the mean reading of the sample wells; Conversion_min is the mean reading of blank control wells, representing the reading of the wells without enzyme; Conversion_max is the mean of positive control wells, representing the reading of the wells without inhibitor.
The dose-response curve is fitted with GraphPad Prism software and IC50 was calculated by the “log[inhibitor] vs. response-variable slope” program.

Row | IC50 [nM] | Structure (SMILES)
1 | ≤ 20 | CC1(C)Cc2ncccc2C(c2n[nH]c3nc(N4CCC5(CC4)Cc4ccccc4[C@H]5N)[nH]c(=O)c23)=C1F [Example 190, (S)-6-(1-amino-1,3-dihydrospiro[indene-2,4′-piperidin]-1′-yl)-3-(6-fluoro-7,7-dimethyl-7,8-dihydroquinolin-5-yl)-1,5-dihydro-4H-pyrazolo[3,4-d]pyrimidin-4-one]
2 | 20 to 60 | N[C@@H]1c2ccccc2CC12CCN(c1nc3[nH]nc(C4(c5ccnc(CN6CCCC6)c5)CC4)c3c(=O)[nH]1)CC2 [Example 55, (S)-6-(1-amino-1,3-dihydrospiro[indene-2,4′-piperidin]-1′-yl)-3-(1-(2-(pyrrolidin-1-ylmethyl)pyridin-4-yl)cyclopropyl)-1,5-dihydro-4H-pyrazolo[3,4-d]pyrimidin-4-one]
3 | ≤ 20 | N#Cc1nnc(C2(c3n[nH]c4nc(N5CCC6(CC5)Cc5ccccc5[C@H]6N)[nH]c(=O)c34)CC2)s1 [Example 238, (S)-5-(1-(6-(1-amino-1,3-dihydrospiro[indene-2,4′-piperidin]-1′-yl)-4-oxo-4,5-dihydro-1H-pyrazolo[3,4-d]pyrimidin-3-yl)cyclopropyl)-1,3,4-thiadiazole-2-carbonitrile]
4 | ≤ 20 | N[C@@H]1c2ccccc2CC12CCN(c1nc3[nH]nc(C4(c5ccnc(-c6ccccc6)c5)CC4)c3c(=O)[nH]1)CC2 [Example 86, (S)-6-(1-amino-1,3-dihydrospiro[indene-2,4′-piperidin]-1′-yl)-3-(1-(2-phenylpyridin-4-yl)cyclopropyl)-1,5-dihydro-4H-pyrazolo[3,4-d]pyrimidin-4-one]
5 | ≤ 20 | N[C@@H]1c2ccccc2CC12CCN(c1nc3[nH]nc(C4(c5cccc6c5COC6)CC4)c3c(=O)[nH]1)CC2 [Example 83, (S)-6-(1-amino-1,3-dihydrospiro[indene-2,4′-piperidin]-1′-yl)-3-(1-(1,3-dihydroisobenzofuran-4-yl)cyclopropyl)-1,5-dihydro-4H-pyrazolo[3,4-d]pyrimidin-4-one]
6 | ≤ 20 | N[C@@H]1c2ccccc2CC12CCN(c1nc3[nH]nc(C4(c5ccnc6c5CCCN6)CC4)c3c(=O)[nH]1)CC2 [Example 79, (S)-6-(1-amino-1,3-dihydrospiro[indene-2,4′-piperidin]-1′-yl)-3-(1-(5,6,7,8-tetrahydro-1,8-naplitliyridin-4-yl)cyclopropyl)-1,5-dihydro-4H-pyrazolo[3,4-d]pyrimidin-4-one]
7 | > 60 | C[C@@H]1OCC2(CCN(c3ncc(C4(c5ccccc5)CC4)c(=O)[nH]3)CC2)[C@@H]1N [Example 262, 2-((3S,4S)-4-amino-3-methyl-2-oxa-8-azaspiro[4.5]decan-8-yl)-5-(1-phenylcyclopropyl)pyrimidin-4(3H)-one]
8 | ≤ 20 | N[C@@H]1c2nc(Cl)sc2CC12CCN(c1nc3[nH]nc(C4(c5ccccc5)CC4)c3c(=O)[nH]1)CC2 [Example 193, (S)-6-(4-amino-2-chloro-4,6-dihydrospiro[cyclopenta[d]thiazole-5,4′-piperidin]-1′-yl)-3-(1-phenylcyclopropyl)-1,5-dihydro-4H-pyrazolo[3,4-d]pyrimidin-4-one]
9 | ≤ 20 | N[C@@H]1c2ccccc2CC12CCN(c1nc3[nH]nc(C4=CCC5(CC5)c5ncccc54)c3c(=O)[nH]1)CC2 [Example 133, (S)-6-(1-amino-1,3-dihydrospiro[indene-2,4′-piperidin]-1′-yl)-3-(7′H-spiro[cyclopropane-1,8′-quinolin]-5′-yl)-1,5-dihydro-4H-pyrazolo[3,4-d]pyrimidin-4-one]

The next lines start with the compound.

Row | Structure (SMILES) | IC50 [nM]
10 | N[C@@H]1c2ccccc2CC12CCN(c1nc3[nH]nc(C4(c5ncccn5)CC4)c3c(=O)[nH]1)CC2 [Example 245, (S)-6-(1-amino-1,3-dihydrospiro[indene-2,4′-piperidin]-1′-yl)-3-(1-(pyrimidin-2-yl)cyclopropyl)-1,5-dihydro-4H-pyrazolo[3,4-d]pyrimidin-4-one] | ≤ 20
11 | Cn1ncc2c1CC(C)(C)C=C2c1n[nH]c2nc(N3CCC4(CC3)Cc3ccccc3[C@H]4N)[nH]c(=O)c12 [Example 150, (S)-6-(1-amino-1,3-dihydrospiro[indene-2,4′-piperidin]-1′-yl)-3-(1,6,6-trimethyl-6,7-dihydro-1H-indazol-4-yl)-1,5-dihydro-4H-pyrazolo[3,4-d]pyrimidin-4-one] | ≤ 20
12 | CC(=O)c1cccc(C2(c3n[nH]c4nc(N5CCC6(CC5)CO[C@H](C)[C@@H]6N)[nH]c(=O)c34)CC2)c1 [Example 316, 3-(1-(3-acetylphenyl)cyclopropyl)-6-((3R,4R)-4-amino-3-methyl-2-oxa-8-azaspiro[4.5]decan-8-yl)-1,5-dihydro-4H-pyrazolo[3,4-d]pyrimidin-4-one] | 20 to 60
13 | Cn1cc2c(n1)CCC=C2c1n[nH]c2nc(N3CCC4(CC3)Cc3ccccc3[C@H]4N)[nH]c(=O)c12 [Example 121, (S)-6-(1-amino-1,3-dihydrospiro[indene-2,4′-piperidin]-1′-yl)-3-(2-methyl-6,7-dihydro-2H-indazol-4-yl)-1,5-dihydro-4H-pyrazolo[3,4-d]pyrimidin-4-one] | ≤ 20
14 | N[C@@H]1c2ccccc2CC12CCN(c1nc3[nH]nc(C4(c5cccc(C6CC6)c5)CC4)c3c(=O)[nH]1)CC2 [Example 218, (S)-6-(1-amino-1,3-dihydrospiro[indene-2,4′-piperidin]-1′-yl)-3-(1-(3-cyclopropylphenyl)cyclopropyl)-1,5-dihydro-4H-pyrazolo[3,4-d]pyrimidin-4-one] | ≤ 20
15 | CC1(C)C=C(c2n[nH]c3nc(N4CCC5(CC4)Cc4ccccc4[C@H]5N)[nH]c(=O)c23)c2cnc(C(F)(F)F)nc2C1 [Example 146, (S)-6-(l-amino-1,3-dihydrospiro[indene-2,4'-piperidin]-1′-yl)-3-(7,7-dimethyl-2-(trifluoromethyl)-7,8-dihydroquinazolin-5-yl)-1,5-dihydro-4H-pyrazolo[3,4-d]pyrimidin-4-one] | ≤ 20
16 | N[C@@H]1Cc2ccccc2C12CCN(c1nc3[nH]nc(C4(c5ccccc5)CC4)c3c(=O)[nH]1)CC2 [Example 198, (R)-6-(2-amino-2,3-dihydrospiro[indene-1,4′-piperidin]-1′-yl)-3-(1-phenylcyclopropyl)-1,5-dihydro-4H-pyrazolo[3,4-d]pyrimidin-4-one] | 20 to 60
17 | Cc1cc2c(nn1)CC(C)(C)C=C2c1n[nH]c2nc(N3CCC4(CC3)Cc3ccccc3[C@H]4N)[nH]c(=O)c12 [Example 164, (S)-6-(1-amino-1,3-dihydrospiro[indene-2,4′-piperidin]-1′-yl)-3-(3,7,7-trimethyl-7,8-dihydrocinnolin-5-yl)-1,5-dihydro-4H-pyrazolo[3,4-d]pyrimidin-4-one] | ≤ 20
18 | N[C@@H]1COCC12CCN(c1nc3[nH]nc(C4(c5ccccc5)CC4)c3c(=O)[nH]1)CC2 [Example 271, (S)-6-(4-amino-2-oxa-8-azaspiro[4.5]decan-8-yl)-3-(1-phenylcyclopropyl)-1,5-dihydro-4H-pyrazolo[3,4-d]pyrimidin-4-one] | 20 to 60
19 | Cn1ccc2c(C3(c4n[nH]c5nc(N6CCC7(CC6)Cc6ccccc6[C@H]7N)[nH]c(=O)c45)CC3)cccc21 [Example 81, (S)-6-(1-amino-1,3-dihydrospiro[indene-2,4′-piperidin]-1′-yl)-3-(1-(1-methyl-1H-indol-4-yl)cyclopropyl)-1,5-dihydro-4H-pyrazolo[3,4-d]pyrimidin-4-one] | ≤ 20
20 | C[C@@H]1OCC2(CCN(c3nc4[nH]nc(C5(c6ccccc6)CC5)c4c(=O)n3C)CC2)[C@@H]1N [Example 272, 6-((3S,4S)-4-amino-3-methyl-2-oxa-8-azaspiro[4.5]decan-8-yl)-5-methyl-3-(1-phenylcyclopropyl)-1,5-dihydro-4H-pyrazolo[3,4-d]pyrimidin-4-one] | 20 to 60
